For 23 substances, positive/tested donors results are on record in US11806366B2, “Peptides and combination of peptides for use in immunotherapy against epithelial ovarian cancer and other cancers” (Immatics Biotechnologies GmbH, priority 2015, dated 2023).

The assay relates to CD8 T cells from blood of healthy donors. Nature of the assay: Immunogenicity analysis of HLA class I ligands: aAPC priming of CD8 T cells, MHC-multimer staining. The settings on record: immunogenicity of MUC16/CA-125 ligands, HLA allotype as in Table 11. The assay is classed as cell-based, human. Here is the method:
Priming of peptide specific cytotoxic lymphocytes (CTLs) was conducted using an established protocol involving artificial antigen presenting cells (aAPCs) (30). aAPCs consisted of streptavidin-coated polystyrene beads (5.6 μm in diameter; Bangs Laboratories, Fishers, Ind.). […] T cells were isolated from whole blood of healthy donors using a CD8 magnetic cell isolation kit (Miltenyi). One million T-cells per well were cultured in 96 well plates (Corning, Corning, N.Y., USA) and stimulated with the same number of loaded aAPCs in the presence of 5 ng/ml IL-12 (PromoCell, Heidelberg, Germany). T cells were stimulated 3 times in total with weekly stimulation interval. 40 U/ml IL-2 was added 2 days subsequent to each stimulation. T-cell priming was assessed by MHC-multimer staining one week after the last stimulation round.
For the applicability of peptide vaccines immunogenicity is a major imperative. In order to evaluate the immunogenic potential of the identified HLA ligands the inventors used a T-cell priming protocol involving artificial antigen presenting cells and T cells isolated from blood of healthy donors. […] This nearly 80% recognition rate verifies the presence of naïve MUC16 recognizing T cells in the human population. Similar results have been obtained for other TOP100 antigens (e.g. IDO1, LGALS1).

With “2 (STETSTVLY; listed as Homo sapiens) [compound 2]”, the positive/tested donors was 0/2. Then “5 (AVTNVRTSI; listed as Homo sapiens) [compound 5]”, with 1/3; and “7 (DALVLKTV; listed as Homo sapiens) [compound 7]”, with 1/3; and “8 (DPYKATSAV; listed as Homo sapiens) [compound 8]”, with 3/3.

Turning to “10 (ERSPVIQTL; listed as Homo sapiens) [compound 10]”, the positive/tested donors is 1/2.

“11 (ETILTFHAF; listed as Homo sapiens) [compound 11]”: the positive/tested donors is reported as 2/2. With “12 (EVISSRGTSM; listed as Homo sapiens) [compound 12]”, the positive/tested donors is given as 1/3.

As to “13 (EVITSSRTTI; listed as Homo sapiens) [compound 13]”, the positive/tested donors is reported as 1/1. Then “14 (EVTSSGRTSI; listed as Homo sapiens) [compound 14]”, with 2/3; and “18 (FQRQGQTAL; listed as Homo sapiens) [compound 18]”, with 1/6. Take “23 (GTSGTPVSK; listed as Homo sapiens) [compound 23]”: the positive/tested donors is reported as 0/5. Then “34 (LPHSEITTL; listed as Homo sapiens) [compound 34]”, with 0/2. “48 (SPHPVTALL; listed as Homo sapiens) [compound 48]”: the positive/tested donors is recorded as 0/1. With “50 (SPQNLRNTL; listed as Homo sapiens) [compound 50]”, the positive/tested donors was 1/1.

“53 (SPSKAFASL; listed as Homo sapiens) [compound 53]”: the positive/tested donors is 2/2.

“56 (SQGFSHSQM; listed as Homo sapiens) [compound 56]”: the positive/tested donors is recorded as 4/5.

For “62 (STSQEIHSATK; listed as Homo sapiens) [compound 62]”, the positive/tested donors is reported as 2/6. To “63 (SVLADLVTTK; listed as Homo sapiens) [compound 63]” belongs 0/1. Regarding “72 (TPGNRAISL; listed as Homo sapiens) [compound 72]”, the positive/tested donors is recorded as 2/2. To “77 (VPRSAATTL; listed as Homo sapiens) [compound 77]” belongs 1/2; to “547 (IITEVITRL; listed as Homo sapiens) [compound 547]”, 3/10; to “548 (KMISAIPTL; listed as Homo sapiens) [compound 548]”, 4/6. Then “549 (TYSEKTTLF; listed as Homo sapiens) [compound 549]”, with 2/2.
